# Laboratory results from patent US8192962B2, “Processes for detecting toxic substances” (Daikin Industries, Ltd., priority 2001, dated 2012).
# Tested on: Stress protein genes
# Assay: DNA chip mRNA expression in yeast, stress protein genes (Table 6)
# Format: cell-based, Saccharomyces cerevisiae S288C
# How it was run: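 Chemical exposure: 2 h, log-phase S. cerevisiae S288C, YPD, 25° C., dose set to inhibit growth without death. Profiling: mRNA labeled by reverse transcription with Cy3- or Cy5-dUTP, hybridized to whole-genome array. Output: fluorescence ratio against untreated culture.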
structure (smiles),measurement,setting,value
"[Cl][Hg][Cl] [(3), HgCl2]",The level of expressed mRNA in the presence of chemical substance/The level of expressed mRNA in the absence of chemical substance,yeast gene YAL005C,7.0
same,The level of expressed mRNA in the presence of chemical substance/The level of expressed mRNA in the absence of chemical substance,yeast gene YAL015C,1.7
same,The level of expressed mRNA in the presence of chemical substance/The level of expressed mRNA in the absence of chemical substance,yeast gene YBL075C,3.1
same,The level of expressed mRNA in the presence of chemical substance/The level of expressed mRNA in the absence of chemical substance,yeast gene YBL093C,0.4
same,The level of expressed mRNA in the presence of chemical substance/The level of expressed mRNA in the absence of chemical substance,yeast gene YBR044C,0.7
same,The level of expressed mRNA in the presence of chemical substance/The level of expressed mRNA in the absence of chemical substance,yeast gene YBR054W,5.4
same,The level of expressed mRNA in the presence of chemical substance/The level of expressed mRNA in the absence of chemical substance,yeast gene YBR067C,2.8
same,The level of expressed mRNA in the presence of chemical substance/The level of expressed mRNA in the absence of chemical substance,yeast gene YBR072W,18.4
same,The level of expressed mRNA in the presence of chemical substance/The level of expressed mRNA in the absence of chemical substance,yeast gene YBR126C,5.6
same,The level of expressed mRNA in the presence of chemical substance/The level of expressed mRNA in the absence of chemical substance,yeast gene YBR169C,3.9
same,The level of expressed mRNA in the presence of chemical substance/The level of expressed mRNA in the absence of chemical substance,yeast gene YCL035C,1.5
same,The level of expressed mRNA in the presence of chemical substance/The level of expressed mRNA in the absence of chemical substance,yeast gene YCR021C,4.2
same,The level of expressed mRNA in the presence of chemical substance/The level of expressed mRNA in the absence of chemical substance,yeast gene YCR060W,0.9
same,The level of expressed mRNA in the presence of chemical substance/The level of expressed mRNA in the absence of chemical substance,yeast gene YCR083W,1.5
same,The level of expressed mRNA in the presence of chemical substance/The level of expressed mRNA in the absence of chemical substance,yeast gene YDL022W,6.9
same,The level of expressed mRNA in the presence of chemical substance/The level of expressed mRNA in the absence of chemical substance,yeast gene YDL025C,3.5
same,The level of expressed mRNA in the presence of chemical substance/The level of expressed mRNA in the absence of chemical substance,yeast gene YDR033W,4.6
same,The level of expressed mRNA in the presence of chemical substance/The level of expressed mRNA in the absence of chemical substance,yeast gene YDR077W,3.5
same,The level of expressed mRNA in the presence of chemical substance/The level of expressed mRNA in the absence of chemical substance,yeast gene YDR098C,1.0
same,The level of expressed mRNA in the presence of chemical substance/The level of expressed mRNA in the absence of chemical substance,yeast gene YDR155C,3.2
same,The level of expressed mRNA in the presence of chemical substance/The level of expressed mRNA in the absence of chemical substance,yeast gene YDR258C,2.8
same,The level of expressed mRNA in the presence of chemical substance/The level of expressed mRNA in the absence of chemical substance,yeast gene YDR293C,1.2
same,The level of expressed mRNA in the presence of chemical substance/The level of expressed mRNA in the absence of chemical substance,yeast gene YDR436W,1.1
same,The level of expressed mRNA in the presence of chemical substance/The level of expressed mRNA in the absence of chemical substance,yeast gene YDR513W,2.3
same,The level of expressed mRNA in the presence of chemical substance/The level of expressed mRNA in the absence of chemical substance,yeast gene YDR519W,1.7
same,The level of expressed mRNA in the presence of chemical substance/The level of expressed mRNA in the absence of chemical substance,yeast gene YEL030W,1.9
same,The level of expressed mRNA in the presence of chemical substance/The level of expressed mRNA in the absence of chemical substance,yeast gene YEL039C,1.3
same,The level of expressed mRNA in the presence of chemical substance/The level of expressed mRNA in the absence of chemical substance,yeast gene YER042W,3.1
same,The level of expressed mRNA in the presence of chemical substance/The level of expressed mRNA in the absence of chemical substance,yeast gene YER057C,3.0
same,The level of expressed mRNA in the presence of chemical substance/The level of expressed mRNA in the absence of chemical substance,yeast gene YER103W,5.2
same,The level of expressed mRNA in the presence of chemical substance/The level of expressed mRNA in the absence of chemical substance,yeast gene YER125W,1.5
same,The level of expressed mRNA in the presence of chemical substance/The level of expressed mRNA in the absence of chemical substance,yeast gene YFL014W,5.7
same,The level of expressed mRNA in the presence of chemical substance/The level of expressed mRNA in the absence of chemical substance,yeast gene YFL016C,1.6
same,The level of expressed mRNA in the presence of chemical substance/The level of expressed mRNA in the absence of chemical substance,yeast gene YFL020C,1.9
same,The level of expressed mRNA in the presence of chemical substance/The level of expressed mRNA in the absence of chemical substance,yeast gene YFR052W,1.3
same,The level of expressed mRNA in the presence of chemical substance/The level of expressed mRNA in the absence of chemical substance,yeast gene YGL073W,0.9
same,The level of expressed mRNA in the presence of chemical substance/The level of expressed mRNA in the absence of chemical substance,yeast gene YGL115W,1.2
same,The level of expressed mRNA in the presence of chemical substance/The level of expressed mRNA in the absence of chemical substance,yeast gene YGL181W,1.2
same,The level of expressed mRNA in the presence of chemical substance/The level of expressed mRNA in the absence of chemical substance,yeast gene YGR088W,7.7
same,The level of expressed mRNA in the presence of chemical substance/The level of expressed mRNA in the absence of chemical substance,yeast gene YHL028W,1.4
same,The level of expressed mRNA in the presence of chemical substance/The level of expressed mRNA in the absence of chemical substance,yeast gene YHL046C,2.1
same,The level of expressed mRNA in the presence of chemical substance/The level of expressed mRNA in the absence of chemical substance,yeast gene YHR030C,0.6
same,The level of expressed mRNA in the presence of chemical substance/The level of expressed mRNA in the absence of chemical substance,yeast gene YHR057C,0.7
same,The level of expressed mRNA in the presence of chemical substance/The level of expressed mRNA in the absence of chemical substance,yeast gene YHR104W,15.7
same,The level of expressed mRNA in the presence of chemical substance/The level of expressed mRNA in the absence of chemical substance,yeast gene YIL011W,3.9
same,The level of expressed mRNA in the presence of chemical substance/The level of expressed mRNA in the absence of chemical substance,yeast gene YIL033C,3.3
same,The level of expressed mRNA in the presence of chemical substance/The level of expressed mRNA in the absence of chemical substance,yeast gene YIR037W,2.0
same,The level of expressed mRNA in the presence of chemical substance/The level of expressed mRNA in the absence of chemical substance,yeast gene YIR038C,4.6
same,The level of expressed mRNA in the presence of chemical substance/The level of expressed mRNA in the absence of chemical substance,yeast gene YJL128C,0.4
same,The level of expressed mRNA in the presence of chemical substance/The level of expressed mRNA in the absence of chemical substance,yeast gene YJL158C,2.8
same,The level of expressed mRNA in the presence of chemical substance/The level of expressed mRNA in the absence of chemical substance,yeast gene YJL159W,2.8
same,The level of expressed mRNA in the presence of chemical substance/The level of expressed mRNA in the absence of chemical substance,yeast gene YJL165C,1.3
same,The level of expressed mRNA in the presence of chemical substance/The level of expressed mRNA in the absence of chemical substance,yeast gene YJR045C,3.9
same,The level of expressed mRNA in the presence of chemical substance/The level of expressed mRNA in the absence of chemical substance,yeast gene YJR090C,0.6
same,The level of expressed mRNA in the presence of chemical substance/The level of expressed mRNA in the absence of chemical substance,yeast gene YKL161C,0.9
same,The level of expressed mRNA in the presence of chemical substance/The level of expressed mRNA in the absence of chemical substance,yeast gene YKL163W,3.4
same,The level of expressed mRNA in the presence of chemical substance/The level of expressed mRNA in the absence of chemical substance,yeast gene YKL164C,2.5
same,The level of expressed mRNA in the presence of chemical substance/The level of expressed mRNA in the absence of chemical substance,yeast gene YKL210W,2.7
same,The level of expressed mRNA in the presence of chemical substance/The level of expressed mRNA in the absence of chemical substance,yeast gene YKR053C,1.0
same,The level of expressed mRNA in the presence of chemical substance/The level of expressed mRNA in the absence of chemical substance,yeast gene YLL024C,5.3
same,The level of expressed mRNA in the presence of chemical substance/The level of expressed mRNA in the absence of chemical substance,yeast gene YLL026W,7.7
same,The level of expressed mRNA in the presence of chemical substance/The level of expressed mRNA in the absence of chemical substance,yeast gene YLL039C,1.7
same,The level of expressed mRNA in the presence of chemical substance/The level of expressed mRNA in the absence of chemical substance,yeast gene YLL060C,2.3
same,The level of expressed mRNA in the presence of chemical substance/The level of expressed mRNA in the absence of chemical substance,yeast gene YLR006C,0.9
same,The level of expressed mRNA in the presence of chemical substance/The level of expressed mRNA in the absence of chemical substance,yeast gene YLR109W,6.0
same,The level of expressed mRNA in the presence of chemical substance/The level of expressed mRNA in the absence of chemical substance,yeast gene YLR259C,3.1
same,The level of expressed mRNA in the presence of chemical substance/The level of expressed mRNA in the absence of chemical substance,yeast gene YML007W,0.9
same,The level of expressed mRNA in the presence of chemical substance/The level of expressed mRNA in the absence of chemical substance,yeast gene YML070W,2.5
same,The level of expressed mRNA in the presence of chemical substance/The level of expressed mRNA in the absence of chemical substance,yeast gene YMR021C,0.9
same,The level of expressed mRNA in the presence of chemical substance/The level of expressed mRNA in the absence of chemical substance,yeast gene YMR173W,3.0
same,The level of expressed mRNA in the presence of chemical substance/The level of expressed mRNA in the absence of chemical substance,yeast gene YMR186W,2.0
same,The level of expressed mRNA in the presence of chemical substance/The level of expressed mRNA in the absence of chemical substance,yeast gene YNL064C,1.8
same,The level of expressed mRNA in the presence of chemical substance/The level of expressed mRNA in the absence of chemical substance,yeast gene YNL160W,10.6
same,The level of expressed mRNA in the presence of chemical substance/The level of expressed mRNA in the absence of chemical substance,yeast gene YNL241C,4.3
same,The level of expressed mRNA in the presence of chemical substance/The level of expressed mRNA in the absence of chemical substance,yeast gene YNR076W,2.5
same,The level of expressed mRNA in the presence of chemical substance/The level of expressed mRNA in the absence of chemical substance,yeast gene YOL064C,1.1
same,The level of expressed mRNA in the presence of chemical substance/The level of expressed mRNA in the absence of chemical substance,yeast gene YOL161C,2.4
same,The level of expressed mRNA in the presence of chemical substance/The level of expressed mRNA in the absence of chemical substance,yeast gene YOR008C,1.4
same,The level of expressed mRNA in the presence of chemical substance/The level of expressed mRNA in the absence of chemical substance,yeast gene YOR009W,3.2
same,The level of expressed mRNA in the presence of chemical substance/The level of expressed mRNA in the absence of chemical substance,yeast gene YOR010C,3.2
same,The level of expressed mRNA in the presence of chemical substance/The level of expressed mRNA in the absence of chemical substance,yeast gene YOR027W,4.4
same,The level of expressed mRNA in the presence of chemical substance/The level of expressed mRNA in the absence of chemical substance,yeast gene YOR208W,1.2
same,The level of expressed mRNA in the presence of chemical substance/The level of expressed mRNA in the absence of chemical substance,yeast gene YPL059W,2.6
same,The level of expressed mRNA in the presence of chemical substance/The level of expressed mRNA in the absence of chemical substance,yeast gene YPL106C,2.4
same,The level of expressed mRNA in the presence of chemical substance/The level of expressed mRNA in the absence of chemical substance,yeast gene YPL140C,0.9
same,The level of expressed mRNA in the presence of chemical substance/The level of expressed mRNA in the absence of chemical substance,yeast gene YPL194W,0.4
same,The level of expressed mRNA in the presence of chemical substance/The level of expressed mRNA in the absence of chemical substance,yeast gene YPL223C,1.2
same,The level of expressed mRNA in the presence of chemical substance/The level of expressed mRNA in the absence of chemical substance,yeast gene YPL240C,2.4
same,The level of expressed mRNA in the presence of chemical substance/The level of expressed mRNA in the absence of chemical substance,yeast gene YPR005C,1.5
same,The level of expressed mRNA in the presence of chemical substance/The level of expressed mRNA in the absence of chemical substance,yeast gene YPR026W,5.0
